We go through eleven compounds from patent US20060276468A1, “Wood preservative formulations comprising Imazalil” (priority 2005, published 2006).

This assay concerns decay organisms. Put plainly: soil contact veneer exposure test: dip-treated Scots pine sapwood veneers half buried in damp compost, pulled by hand weekly until failure. Conditions: for average time for failure to occur (half life): biocide alone: 0.6% dichlorophen, 0.2% triclosan, 0.8% fenarimol, 0.8% PHMB, 0.4% imazalil sulfate, 6 veneers; for Half life for fungicide at 2% active ingredient (ai) / estimated expected half life for 1% fungicide plus 1% Imazalil sulfate / Half life for 1% fungicide plus 1% Imazalil sulfate: Example 3; for half life, Low level with 0.8% Imazalil sulfate: 0.8% fungicide plus 0.8% imazalil sulfate, IMS; for synergy of the combination with imazalil sulfate: actual versus expected average time to failure; for half life, Low level with 0.8% Imazalil: 0.8% fungicide plus 0.8% imazalil. The text has this: The present invention also provides a simple exposure test for evaluating the wood preserving abilities of candidate ingredients or compositions. This exposure test is based on the premise that small dimension timber test specimens tend to fail more quickly than larger ones in soil contact situations.
It is preferable that the thickness of the veneers be greater than 0.1 mm, as veneers of lesser thickness can often be pulled apart by hand without undergoing exposure to decay organisms. Veneers which are thicker than 0.4 may take an excessive amount of time to fail the exposure test. In one embodiment, the thickness of the veneers is about 0.2 mm and the wood is the sapwood of the Scots pine (Pinus sylvestris). Other woods and thicknesses can be used. […] An example of convenient width and length dimensions are 15×50 mm. However, width and length are not critical provided they are kept consistent within a test, although very large or small length or width dimensions may be difficult to handle.
Accordingly, the test of the present invention comprises testing the integrity of a veneer after exposure to a decay-inducing environment. In one embodiment, this environment is damp compost in which decay organisms are present and water is present at just above the water holding capacity of the compost. If desired, other media can be used, and the test can be conducted at water contents which are below, at, or above the water-holding capacity of the media.
In general, the integrity of the veneer is inversely related to the length of exposure to the decay promoting environment. The integrity of the veneer can be tested by applying a force to the veneer and noting whether or not the veneer breaks. Thus, if wood preservative agents are applied to the veneers, these veneers would be expected to withstand longer exposure to the environment without breaking compared to control veneers without breaking.
The force applied to the veneers is preferably a force which pulls the two ends in opposite directions. The force can be applied by the use of an instrument or manually. If there is significant decay the veneer will break, generally near the junction between the portion submerged in the decay accelerating medium and the portion exposed to air. If the force is applied manually, it is preferable that the same individual conduct the test at the various exposure time points.
The veneers were cut such that both late wood and early wood were present in each veneer. The following biocides were tested: imazalil sulfate, dichlorophen, fenarimol, triclosan, and PHMB. To allow the mixing together of the five selected biocides in any combination the biocides were formulated such that they could be mixed together (all the percentages are mass/mass):
Test solutions were prepared and sets of veneers were dip treated such that there were 6 replicate veneers for each treatment under investigation. Additionally six veneers were dip treated in deionised water to act as water controls. […] Plastic containers (approximately 350×220 mm by at least 60 mm high) were part filled with John Innes Number 2 potting compost at a little above its water holding capacity. The veneers for this particular test were placed in six rows within a container such that approximately half the veneer was below the compost and half above. The veneers were placed in the compost such than those given a particular treatment were distributed throughout the container and were not grouped together. The containers, compost and veneers were weighed then incubated at about 30° C. and near 100% relative humidity in an incubator. Each week during the test the assembly was reweighed and deionised water added to bring it back to its original mass. After 3 weeks each veneer was examined in turn. It was held between the fore finger and thumb at each end and pulled to see if it could be broken. If it could be pulled apart a failure was recorded.

[1] abbreviates: Example 9, 1.4% BBIT or 0.4% imazalil sulfate alone, formulations which can be mixed together.
Where [2] appears, read: Example 14, 0.6% dichlorophen or 0.4% imazalil sulfate alone.
The mark [3] stands for this setting: Example 15, 2.0% alone, solutions in IMS (alcohol).
Where [4] appears, read: Example 16, 0.8% alone, solutions in IMS (alcohol).
[5] abbreviates: Example 16, 1.6% alone, solutions in IMS (alcohol).
Where [6] appears, read: unnumbered table, solutions in IMS.
Setting [7] is: Example 10, additive expectation.
The mark [8] stands for this setting: Example 10, solutions in IMS (alcohol).
Setting [9] is: Example 5, additive expectation.
The mark [10] stands for this setting: Example 5, solutions in acetone.
Where [11] appears, read: Example 7, solutions in acetone.

“Also recorded” adds a separate entry of the source.

On to “1H-imidazole,1-(2-(2,4-dichlorophenyl)-2-(2-propenyloxy)ethyl)-, sulfate [Imazalil sulfate]”, for which the “average time for failure to occur (half life)” value (Example 1) is on record as 5.17 weeks. Also, the “average time for failure to occur, No Quat” value (Example 2, 0.60% imazalil sulfate alone (Table 3; text b187 says 0.4%)) was determined as 5.67 weeks. Moreover, where the note is “solutions in IMS (alcohol)”, the “Half life for fungicide at 2% active ingredient (ai)” value is reported as 6.00 weeks. The “Half life for fungicide at 2% ai” value (Example 4, Table 8 title: solutions in acetone (Table 7: deionised water)) turned out to be 7.17 weeks. For the same compound, the “half life, No addition” value by setting is: under setting [1], 5.50 weeks; under setting [2], 5.2 weeks; under setting [3], 7.83 weeks. In addition, the “Calculated half life” value is, setting by setting: (Example 12, Fluid 1, 0.25% imazalil sulfate in deionized water) 5.00 weeks; (Example 12, Fluid 2, 0.50% imazalil sulfate in deionized water) 6.50 weeks; (Example 12, Fluid 3, 1.00% imazalil sulfate in deionized water) 6.83 weeks; (Example 12, Fluid 4, 1.50% imazalil sulfate in deionized water) 8.17 weeks; under setting [4], 7.00 weeks; under setting [5], 8.00 weeks. The “half life, High level (1.6%)” value is, setting by setting: (solutions in IMS) 5.83 weeks; under setting [6], 7.00 weeks. Also, the “half life, Low level (0.8%)” value is 5.00 weeks (solutions in IMS) and 5.67 weeks under setting [6].

For the compound `OC(c1ccc(Cl)cc1)(c1cncnc1)c1ccccc1Cl` (racemic) [Fenarimol, (±)-2,4′-dichloro-α-(pyrimidin-5-yl)benzhydryl alcohol], the “half life, Low level with 0.8% Imazalil sulfate” value is 6.67 weeks and the “synergy of the combination with imazalil sulfate” value (“synergy of the combination” for short) is listed as “positive synergy”. Further, the “average time for failure to occur (half life), combination with imazalil sulfate” value (Example 1, 0.3% dichlorophen, 0.1% triclosan, 0.4% fenarimol or 0.4% PHMB, each plus 0.2% imazalil sulfate) was 6.67 weeks. In addition, the “estimated expected average time for failure, combination with imazalil sulfate” value (Example 1, additive expectation, midway between the two single biocides) is recorded as “(6.17) weeks”. The “average time for failure to occur (half life)” value (Example 1) is 7.17 weeks. Under “solutions in IMS”, the “half life, High level (1.6%)” value is given as 5.00 weeks and the “half life, Low level (0.8%)” value is listed as 4.50 weeks.

As to `CC(Cc1ccc(C(C)(C)C)cc1)CN1C[C@@H](C)O[C@@H](C)C1` (mixture of isomers) [Fenpropimorph, (±)-cis-4-[3-(4-tert-butylphenyl)-2-methylpropyl]-2,6-dimethyl=morpholine], the “estimated expected half life for 1% fungicide plus 1% Imazalil sulfate” value (additive expectation) is reported as 5.34 weeks. For the setting “solutions in IMS (alcohol)”, the “Half life for 1% fungicide plus 1% Imazalil sulfate” value worked out at 5.67 weeks and the “Half life for fungicide at 2% active ingredient (ai)” value was determined as 4.67 weeks. For the same compound, the “half life, Low level with 0.8% Imazalil” value (Example 10, IMS (alcohol)) is on record as 5.83 weeks. In addition, the “estimated expected half life, Low level with 0.8% Imazalil” value under setting [7] was “(5.17 weeks)”. In addition, under setting [8], the “half life, High level (1.6%)” value is 4.17 weeks and the “half life, Low level (0.8%)” value turned out to be 3.67 weeks.

Turning to `CCCCn1sc2ccccc2c1=O` [BBIT, N-butyl-1,2-benzisothiazolin-3-one], the “half life, With Imazalil sulfate” value (Example 9, 0.7% BBIT plus 0.2% imazalil sulfate) is listed as 7.33 weeks. The “half life, No addition” value under setting [1] is 8.33 weeks. In addition, where the note is “Example 9, additive expectation”, the “estimated expected half life, With Imazalil sulfate” value is “{6.92 weeks}”.

In the case of `OB(O)O` [Boric acid], the “half life, Low level with 0.8% Imazalil sulfate” value (unnumbered table) is recorded as 5.33 weeks. In addition, the “expected half life, Low level with 0.8% Imazalil sulfate” value (unnumbered table, additive expectation) was “{5.57 weeks}”. For the same compound, under setting [6], the “half life, High level (1.6%)” value was 4.50 weeks and the “half life, Low level (0.8%)” value was found to be 3.83 weeks.

With `N#Cc1c(Cl)c(Cl)c(Cl)c(C#N)c1Cl` [Chlorothalonil, tetrachloroisophthalonitrile], the “estimated expected half life for 1% fungicide plus 1% Imazalil” value under setting [9] is on record as “{9.92 weeks}”. In addition, under setting [10], the “Half life for 1% fungicide plus 1% Imazalil” value came to 10.67 weeks and the “Half life for fungicide at 2% ai” value worked out at 12.17 weeks.

Consider `CC(C1CC1)C(O)(Cn1cncn1)c1ccc(Cl)cc1` (stereo not drawn) [Cyproconazole, α-(4-chlorophenyl)-α-(1-cyclopropylethyl)-=1H-1,2,4-triazol-1-ethanol], for which, for the setting “Example 7, additive expectation”, the “estimated expected half life, Low level (0.8%) plus 0.8% Imazalil” value was “{5.42 weeks}”. Further, under setting [11], the “half life, High level (1.6%)” value is recorded as 4.67 weeks; the “half life, Low level (0.8%)” value is on record as 4.17 weeks; the “half life, Low level (0.8%) plus 0.8% Imazalil” value was 6.17 weeks. The “half life, Low level with 0.8% Imazalil” value (Example 10, IMS (alcohol)) was 6.17 weeks. Besides, the “estimated expected half life, Low level with 0.8% Imazalil” value under setting [7] is recorded as “(5.42 weeks)”. Also, under setting [8], the “half life, High level (1.6%)” value worked out at 4.67 weeks and the “half life, Low level (0.8%)” value is listed as 4.17 weeks.

In the case of `CCCCCCCCCC[N+](C)(C)CCCCCCCCCC.[Cl-]` [DDAC, didecyl dimethyl ammonium chloride], the “half life, Low level with 0.8% Imazalil sulfate” value was 5.50 weeks and the “synergy of the combination” value is recorded as “evidence of synergy”. Also, the “average time for failure to occur, quat with Imazalil sulfate” value (Example 2, 0.18% active quat plus 0.30% imazalil sulfate (Table 3; text b187 says 0.2%)) amounted to 5.50 weeks. Moreover, the “average time for failure to occur, Quat Only” value (Example 2, 0.36% active quat in deionised water) is listed as 4.17 weeks. Under “additive expectation”, the “estimated expected half life for 1% fungicide plus 1% Imazalil sulfate” value was 5.50 weeks and the “expected half life, Low level with 0.8% Imazalil sulfate” value was “{5.58 weeks}”. Moreover, under “solutions in IMS (alcohol)”, the “Half life for 1% fungicide plus 1% Imazalil sulfate” value amounted to 6.50 weeks and the “Half life for fungicide at 2% active ingredient (ai)” value is recorded as 5.00 weeks. In addition, where the note is “solutions in IMS”, the “half life, High level (1.6%)” value was determined as 5.33 weeks and the “half life, Low level (0.8%)” value is recorded as 5.00 weeks.

Regarding `Oc1ccc(Cl)cc1Cc1cc(Cl)ccc1O` [Dichlorophen, 2,2′-methylenebis[4-chlorophenol]], the “synergy of the combination” value is “positive synergy; also recorded: exceeded the expected value”. The “average time for failure to occur (half life)” value (Example 1) is reported as 9.50 weeks. The “estimated expected half life for 1% fungicide plus 1% Imazalil sulfate” value (additive expectation) is reported as 12.92 weeks. Moreover, where the note is “solutions in IMS (alcohol)”, the “Half life for 1% fungicide plus 1% Imazalil sulfate” value was found to be 15.33 weeks and the “Half life for fungicide at 2% active ingredient (ai)” value is 19.83 weeks. For the same compound, the “half life, With Imazalil sulfate” value (Example 14, 0.3% dichlorophen plus 0.2% imazalil sulfate) is reported as 11.2 weeks. For the same compound, the “half life, No addition” value under setting [2] came out at 9.5 weeks. In addition, the “expected half life, With Imazalil sulfate” value (Example 14, additive expectation) is reported as “{7.4 weeks}”. Moreover, for the setting “Example 15, 1.0% dichlorophen plus 1.0% imazalil sulfate, IMS (alcohol)”, the “half life, With Imazalil sulfate” value came to 19.67 weeks. Also, under setting [3], the “half life, No addition” value is on record as 17.00 weeks. Further, the “expected half life, With Imazalil sulfate” value (Example 15, additive expectation) is given as “{12.42 weeks}”. Further, the Calculated half life under setting [4] is on record as 11.33 weeks. The Calculated half life (Example 16, 0.8% dichlorophen plus 0.8% imazalil sulfate, IMS (alcohol)) is given as 13.00 weeks. Also, the expected half life result (Example 16, 0.8% dichlorophen plus 0.8% imazalil sulfate, additive expectation) is “{11.25 weeks}”. Further, under setting [5], the Calculated half life is given as 14.50 weeks.

In the case of `CCCC1COC(Cn2cncn2)(c2ccc(Cl)cc2Cl)O1` (stereo not drawn) [Propiconazole, 1-[[2-(2,4-dichlorophenyl)-4-propyl-1,3-dioxolan-2-yl]=methyl]-1H-1,2,4-triazole], the “estimated expected half life for 1% fungicide plus 1% Imazalil” value under setting [9] is recorded as “{6.59 weeks}”. Moreover, under setting [10], the “Half life for 1% fungicide plus 1% Imazalil” value was 7.33 weeks and the “Half life for fungicide at 2% ai” value stood at 5.50 weeks. For the same compound, the “half life, Low level with 0.8% Imazalil” value (Example 10, IMS (alcohol)) is recorded as 6.17 weeks. Besides, the “estimated expected half life, Low level with 0.8% Imazalil” value under setting [7] was “(5.84 weeks)”. Also, under setting [8], the “half life, High level (1.6%)” value came out at 5.50 weeks and the “half life, Low level (0.8%)” value was determined as 5.33 weeks.

For the compound `COC(=O)N(OC)c1ccccc1COc1ccn(-c2ccc(Cl)cc2)n1` [Pyraclostrobin, methyl N-{2-[1-(4-chlorophenyl)-1H-pyrazol-3-yloxymethyl]phenyl}(N-methoxy)carbamate], under “additive expectation”, the “estimated expected half life for 1% fungicide plus 1% Imazalil sulfate” value is recorded as 6.09 weeks. Besides, under “solutions in IMS (alcohol)”, the “Half life for 1% fungicide plus 1% Imazalil sulfate” value is recorded as 6.50 weeks and the “Half life for fungicide at 2% active ingredient (ai)” value was found to be 6.17 weeks.
